Data taken from paper PMC6332093, “Development of Radiolabeled Membrane Type-1 Matrix Metalloproteinase Activatable Cell Penetrating Peptide Imaging Probes” (Molecules, 2015).
Read-outs that look alike come from different tables or passages of the source. Square brackets hold non-standard residues; d marks the D form. Peptide text beside a SMILES is read from it. * marks the point of attachment. DOTA = O=C(O)CN1CCN(CC(=O)O)CCN(CC(=O)*)CCN(CC(=O)O)CC1; AEA = NCCOCC(=O)O

Assays:
[1] = Biodistribution in mouse model of myocardial infarction; assay type: in vivo; conditions: iv, total radioactivity, 5 h post-injection; for tissue uptake at 5 h: 10 nmol i.v., mean ± SD
Method: An in vivo pilot study was performed to assess the in vivo biodistribution of ACPP-B and CPP-B, 5 h post-injection, in a mouse model of myocardial infarction (MI). The conditions were similar to the earlier study with the MMP-2/9 sensitive probe ^177Lu/^125I-ACPP-2/9 [1] to facilitate comparison. We aimed to characterize the in vivo biodistribution of ACPP-B using a dual-isotope approach with ^177Lu, labeled to the polycationic domain, and ^125I, labeled to the polyanionic domain, as orthogonal radiolabels (see Supplemental Information for performed iodination procedures). […] Unfortunately, a >95% radiochemical purity could not be achieved by solid phase extraction (Figure S5), and desalting strategies to remove ^125I could not be applied due to the low molecular weight of the peptide. Therefore, re-design of the ACPP-B peptide structure, to prevent side-reactions during iodination, may enable dual-isotope studies. Hereto, the cysteine residue can be acetylated, but oxidation of the sulfur atom may still occur. Furthermore, this conversion results in a more hydrophobic residue that may impact the MT1-MMP sensitivity of the probe. Substitution of the cysteine by a serine residue will possibly be a more attractive option. Alternatively, iodine may be introduced specifically to the N-terminus via coupling of a ^125I-SHPP moiety (following a similar approach as proposed for iodination of ACPP-C (Figure 1)).
(§1) Here, a single isotope labeled probe ^177Lu-ACPP-B was employed in a pilot in vivo study.
MI was induced by permanent ligation of the left anterior descending coronary artery (LAD) using published procedures. In short, animals were subcutaneously injected with buprenorphine (0.1 mg/kg) and 30 min later anesthetized with isoflurane. Animals were intubated and ventilated with 100% oxygen with a rodent respirator. After left thoracotomy between ribs four and five, the LAD was ligated with a 6–0 prolene suture. The chest and skin were closed with 5–0 silk sutures. The animal’s temperature was continuously measured rectally and maintained at 36.5–37.5 °C during surgery. After surgery, animals were allowed to recover at 30 °C overnight.
(§2) Biodistribution experiments were performed on MI-mice (n = 5 per probe) by i.v.-injection of ^177Lu-ACPP-B (10 nmol/100 µL, ca. 4.0 MBq ^177Lu), or ^177Lu-CPP-B (10 nmol/100 µL, ca. 4.0 MBq ^177Lu). For animals injected with ^177Lu-ACPP-B, blood samples were withdrawn from the vena saphena at selected time points (3, 9, 27, and 81 min), weighed, and diluted to 1 mL with MilliQ water. The mice were anesthetized with isoflurane 5 h after i.v.-injection, subjected to 2% (w/v) Evans Blue i.v.-injection (50 mg/kg) and sacrificed 2 min later by cervical dislocation. Organs and tissues of interest were harvested and weighed. The hearts were cooled to 4 °C, cut in 1 mm slices from apex to base. Infarct, border, and remote areas were isolated based on Evans Blue staining. The ^177Lu radioactivity of all samples was measured in a γ-counter (Wizard 1480; PerkinElmer) along with standards to determine the injected dose per gram (%ID/g). The energy window was set to 155–380 keV. The average probe concentration at time 0 (C0) was calculated by fitting the blood clearance data to the 2-phase exponential decay function Y = span1 × exp(−K1 × X) + span2 × exp(−K2 × X) + Plateau using GraphPad Prism. The area under the curve (AUC) was determined and the blood half-life, the time point at which the AUC reaches 50% of the total AUC, was subsequently derived using MatLab. The average volume of distribution was calculated using the formula VD = dose/(mean body weight × C0) [L/kg].

[2] = in vivo; conditions: mouse; for tissue uptake: 10 nmol, total radioactivity
Method: as §1
Figure 6 Blood kinetics of ^177Lu-ACPP-B in MI-mice (n = 3). The data are mean %ID/g ± SD and fitted to the 2-phase exponential decay function Y = span1 × exp(−K1 × X) + span2 × exp(−K2 × X) + Plateau. Span1 = 2.61%ID/g, K1 = 1.99 min^−1, Span2 = 7.35%ID/g, K2 = 27.1 min^−1.
as §2

[3] = blood, MI-mice 10 days after MI, γ-counting, n = 5, read-out: Biodistribution, Blood
[4] = brain, MI-mice, n = 5, read-out: Biodistribution, Brain
[5] = fat, MI-mice, n = 5, read-out: Biodistribution, Fat
[6] = heart, infarct area, MI-mice, n = 5, read-out: Biodistribution, Heart, infarct
[7] = heart, remote myocardium, MI-mice, n = 5, read-out: Biodistribution, Heart, remote
[8] = kidney, MI-mice, n = 5, read-out: Biodistribution, Kidney
[9] = liver, MI-mice, n = 5, read-out: Biodistribution, Liver
[10] = lung, MI-mice, n = 5, read-out: Biodistribution, Lung
[11] = muscle, MI-mice, n = 5, read-out: Biodistribution, Muscle
[12] = spleen, MI-mice, n = 5, read-out: Biodistribution, Spleen
[13] = thigh bone, MI-mice, n = 5, read-out: Biodistribution, Thigh bone

Compound | tissue to tissue ratio at 5 h ([1]; kidney and liver, ^177Lu label, 10 nmol, MI-mice, from Table 1) | blood half-life ([2]; iv) | tissue uptake at 5 h [1, 3] | tissue uptake at 5 h [1, 4] | tissue uptake at 5 h [1, 5] | tissue uptake at 5 h [1, 6] | tissue uptake at 5 h [1, 7] | tissue uptake at 5 h [1, 8] | tissue uptake at 5 h [1, 9] | tissue uptake at 5 h [1, 10] | tissue uptake at 5 h [1, 11] | tissue uptake at 5 h [1, 12] | tissue uptake at 5 h [1, 13] | K1 of 2-phase exponential decay fit of blood kinetics [2] | K2 of 2-phase exponential decay fit of blood kinetics [2] | tissue uptake ([2]; iv, Span1 of 2-phase exponential decay fit of blood kinetics) | tissue uptake ([2]; iv, Span2 of 2-phase exponential decay fit of blood kinetics)
CC(=O)N[C@H](Cc1ccc(O)cc1)C(=O)N[C@H](CCC(=O)O)C(=O)N[C@H](CCC(=O)O)C(=O)N[C@H](CCC(=O)O)C(=O)N[C@H](CCC(=O)O)C(=O)N[C@H](CCC(=O)O)C(=O)N[C@H](CCC(=O)O)C(=O)N[C@H](CCC(=O)O)C(=O)N[C@H](CCC(=O)O)C(=O)N[C@H](CCC(=O)O)C(=O)NCCOCC(=O)N[C@@H](CS)C(=O)N[C@@H](CCCNC(=N)N)C(=O)N1CCC[C@H]1C(=O)N[C@@H](C)C(=O)N[C@@H](Cc1c[nH]cn1)C(=O)N[C@@H](CC(C)C)C(=O)N[C@@H](CCCNC(=N)N)C(=O)N[C@@H](CC(=O)O)C(=O)N[C@@H](CO)C(=O)NCC(=O)NCCOCC(=O)N[C@H](CCCNC(=N)N)C(=O)N[C@H](CCCNC(=N)N)C(=O)N[C@H](CCCNC(=N)N)C(=O)N[C@H](CCCNC(=N)N)C(=O)N[C@H](CCCNC(=N)N)C(=O)N[C@H](CCCNC(=N)N)C(=O)N[C@H](CCCNC(=N)N)C(=O)N[C@H](CCCNC(=N)N)C(=O)N[C@H](CCCNC(=N)N)C(=O)N[C@H](CCCCNC(=O)CN1CCN(CC(=O)O)CCN(CC(=O)O)CCN(CC(=O)O)CC1)C(N)=O [ACPP-B, Ac-y-e9-X-CRPAHLRDSG-X-r9-k(DOTA)-NH2] (Ac-[dY][dE][dE][dE][dE][dE][dE][dE][dE][dE][AEA]CRPAHLRDSG[AEA][dR][dR][dR][dR][dR][dR][dR][dR][dR][dK](DOTA)-NH2) | 14.9 | ~ 24 min | – | – | – | – | – | – | – | – | – | – | – | – | – | – | –
CC(=O)N[C@H](Cc1ccc(O)cc1)C(=O)N[C@H](CCC(=O)O)C(=O)N[C@H](CCC(=O)O)C(=O)N[C@H](CCC(=O)O)C(=O)N[C@H](CCC(=O)O)C(=O)N[C@H](CCC(=O)O)C(=O)N[C@H](CCC(=O)O)C(=O)N[C@H](CCC(=O)O)C(=O)N[C@H](CCC(=O)O)C(=O)N[C@H](CCC(=O)O)C(=O)NCCOCC(=O)N[C@@H](CS)C(=O)N[C@@H](CCCNC(=N)N)C(=O)N1CCC[C@H]1C(=O)N[C@@H](C)C(=O)N[C@@H](Cc1c[nH]cn1)C(=O)N[C@@H](CC(C)C)C(=O)N[C@@H](CCCNC(=N)N)C(=O)N[C@@H](CC(=O)O)C(=O)N[C@@H](CO)C(=O)NCC(=O)NCCOCC(=O)N[C@H](CCCNC(=N)N)C(=O)N[C@H](CCCNC(=N)N)C(=O)N[C@H](CCCNC(=N)N)C(=O)N[C@H](CCCNC(=N)N)C(=O)N[C@H](CCCNC(=N)N)C(=O)N[C@H](CCCNC(=N)N)C(=O)N[C@H](CCCNC(=N)N)C(=O)N[C@H](CCCNC(=N)N)C(=O)N[C@H](CCCNC(=N)N)C(=O)N[C@H](CCCCNC(=O)CN1CCN(CC(=O)O)CCN(CC(=O)O)CCN(CC(=O)O)CC1)C(N)=O [^177Lu-ACPP-B, metal not drawn] (Ac-[dY][dE][dE][dE][dE][dE][dE][dE][dE][dE][AEA]CRPAHLRDSG[AEA][dR][dR][dR][dR][dR][dR][dR][dR][dR][dK](DOTA)-NH2) | – | – | 0.08 ± 0.03 %ID/g | 0.01 ± 0.01 %ID/g | 0.43 ± 0.28 %ID/g | 0.75 ± 0.15 %ID/g | 0.11 ± 0.02 %ID/g | 100 ± 13 %ID/g | 6.76 ± 0.91 %ID/g | 0.38 ± 0.09 %ID/g | 0.09 ± 0.07 %ID/g | 0.77 ± 0.13 %ID/g | 1.92 ± 0.73 %ID/g | 1.99 min⁻¹ | 27.1 min⁻¹ | 2.61 %ID/g | 7.35 %ID/g
CC(C)C[C@H](N)C(=O)N[C@@H](CCCNC(=N)N)C(=O)N[C@@H](CC(=O)O)C(=O)N[C@@H](CO)C(=O)NCC(=O)NCCOCC(=O)N[C@H](CCCNC(=N)N)C(=O)N[C@H](CCCNC(=N)N)C(=O)N[C@H](CCCNC(=N)N)C(=O)N[C@H](CCCNC(=N)N)C(=O)N[C@H](CCCNC(=N)N)C(=O)N[C@H](CCCNC(=N)N)C(=O)N[C@H](CCCNC(=N)N)C(=O)N[C@H](CCCNC(=N)N)C(=O)N[C@H](CCCNC(=N)N)C(=O)N[C@H](CCCCNC(=O)CN1CCN(CC(=O)O)CCN(CC(=O)O)CCN(CC(=O)O)CC1)C(N)=O [^177Lu-CPP-B, metal not drawn] (H-LRDSG[AEA][dR][dR][dR][dR][dR][dR][dR][dR][dR][dK](DOTA)-NH2) | – | – | 0.14 ± 0.06 %ID/g | 0.01 ± 0.01 %ID/g | 0.16 ± 0.07 %ID/g | 1.69 ± 0.5 %ID/g | 0.32 ± 0.11 %ID/g | 10.1 ± 1.61 %ID/g | 33.2 ± 3.98 %ID/g | 0.67 ± 0.25 %ID/g | 0.1 ± 0.02 %ID/g | 4.17 ± 0.82 %ID/g | 2.61 ± 0.25 %ID/g | – | – | – | –
